“Also recorded” adds a separate entry of the source.
Columns and labels:
IL-1α = test: Fibroblast-macrophage coculture with wound exudate: IL-1α; type: cell-based, human; details: WE #78; veliparib 10 μM, talazoparib 0.1 μM
Procedure: CD14^+ monocytes, isolated from PBMC of healthy donors by magnetic bead separation were incubated either alone or in the presence of primary human dermal fibroblasts (CelINTec) or fibroblast-derived matrices (FDM). FDM had been generated from primary human dermal fibroblasts by a 3-week incubation with the growth supplements vitamin C or insulin and EGF (vitamin C: 2-phospho-L-ascorbic acid trisodium salt, 100 μg/ml; human EGF, 5 ng/ml; human insulin, 5 μg/ml). Alternatively, fibroblast monolayer cultures can be used as well. After 4 days to a week to allow for macrophage differentiation in the presence or absence of M-CSF (25 ng/ml), the cultures were stimulated overnight with graded concentrations of test compounds in the absence or presence of various dilutions of sterile-filtered WE. IFN-g (50 ng/ml), LPS (100 ng/ml) and IL-4 (25 ng/ml) or combinations thereof served as controls for M1 and M2 macrophage induction. For negative control samples, medium was added instead of specific stimuli. WE were added to the culture medium for overnight stimulation at dilutions ranging from 1:25 to 1:100.
Supernatants were harvested and frozen for cytokine determination by ELISA, and cells were harvested and subjected to FACS analysis, gating on the monocyte population. Geometric means or mean fluorescence intensities (MFI) were used to quantify surface marker expression. […]

macrophages = test: Fibroblast-macrophage coculture with wound exudate: live cells in FACS CD45-gate; type: cell-based, human; details: WE #78
Procedure: CD14^+ monocytes, isolated from PBMC of healthy donors by magnetic bead separation were incubated either alone or in the presence of primary human dermal fibroblasts (CelINTec) or fibroblast-derived matrices (FDM). FDM had been generated from primary human dermal fibroblasts by a 3-week incubation with the growth supplements vitamin C or insulin and EGF (vitamin C: 2-phospho-L-ascorbic acid trisodium salt, 100 μg/ml; human EGF, 5 ng/ml; human insulin, 5 μg/ml). Alternatively, fibroblast monolayer cultures can be used as well. […]
Supernatants were harvested and frozen for cytokine determination by ELISA, and cells were harvested and subjected to FACS analysis, gating on the monocyte population. Geometric means or mean fluorescence intensities (MFI) were used to quantify surface marker expression.
Cells were harvested and resuspended in FACS buffer (PBS containing 2% FCS). […] Co-staining with CD45 eFluor (#506 69-0459-42) was used to distinguish macrophages from primary human fibroblasts when analyzed from co-cultures. After washing cells with FACS buffer, they were fixed with 1% paraformaldehyde in PBS and stored at 4° C. in the dark until data were acquired on a Gallios flow cytometer from Beckman Coulter and analyzed with the Kaluza analysis software 1.3.

[1] = system: primary human dermal fibroblasts (HDF); test: Fibroblast-derived matrix (FDM) formation assay (3D), with or without wound exudate; type: cell-based
Procedure: HDF cells were seeded at 5000 cells/well on day −3 into 96-well tissue culture plates (1250 cells/well for 384-well plates), which had been pre-coated for 1 hour at 37° C. with 0.2% gelatin solution (Sigma). When the cells reached confluence (=day 0), a matrix promoting supplement (vitamin C: 2-phospho-L-ascorbic acid trisodium salt, 100 μg/ml; Sigma) was added together with test samples containing PDGF-BB, TGF-ß1 or graded concentrations of compounds −/+WE as described for the HDF proliferation assay. After 4 days, medium was replaced by fresh vitamin C- and stimulus- as well as compound-containing medium, maintaining the conditions initiated on day 0. TGF-ß1 and PDGF-BB were included as positive controls to promote FDM formation and cell growth, respectively. After a total incubation time of 8 days, FDM production was measured in fixed cultures via SRB staining and evaluated as described above. In some cases, the experiment was stopped and evaluated already on day 4.
Low molecular weight compounds (see list in Table 1) were dissolved in DMSO (Bioreagent for cell culture, Sigma) at 10 mM or 100 mM and diluted at least 1:1000 in medium for cellular assays (final DMSO concentration ≤0.1%). Compounds were typically tested in half-logarithmic dilution series (1:3.33), starting at 10 μM or 100 μM as the highest compound concentration.
Cells were incubated with compounds for 72 hours in proliferation assays and up to 8 days for FDM assay (refreshed after 4 days). When compounds were tested for their effect on WE stimulation, the incubation of cells with compounds was started and ended simultaneously with WE-incubation.

[2] = system: alpha-smooth muscle actin (α-SMA); test: Immunolocalization of alpha-smooth muscle actin in 2D fibroblast culture (myofibroblast differentiation); type: cell-based, human
Procedure: Primary human dermal fibroblasts (HDF) were purchased from CELLnTEC, Bern. They were routinely grown in Dulbecco's modified Eagle's medium (DMEM) containing 10% FCS, 2 mM glutamine, and 100 U/ml penicillin/100 μg/ml streptomycin. Media, antibiotics, and glutamine were bought from Lonza. The cells were used at passage 5-15. Cells were trypsinized and seeded at 5000 cells/well in 200 μl into the inner wells of 96-well plates. The outer wells were loaded with sterile water. […] For control samples, 200p1 medium was added instead of specific stimuli. Alternatively, the cells were seeded into 384-well plates at 2500 cells/well directly together with test compounds or growth factors and WE or medium in a total volume of […].
After fixation with paraformaldehyde, the cells were incubated for 1 hour at room temperature with a monoclonal mouse-anti-human antibody against alpha-smooth muscle actin (α-SMA) from e-Bioscience, washed 3 times with PBS and developed with an Alexa Fluor-labelled donkey-anti-mouse IgG (Molecular Probes). The cells were washed 3 times with PBS and examined in a Zeiss ZEISS Observer.Z1 microscope, using the software AxioVision 48.

Structure (SMILES): C[C@]1(c2nc3c(C(N)=O)cccc3[nH]2)CCCN1 [veliparib, 2-((2R)-2-methylpyrrolidin-2-yl)-1H-benzimidazole-4-carboxamide]
- IL-1α induced by wound exudate (IL-1α): reduced
- percentage of live cells in the FACS CD45-gate, veliparib with dexamethasone (macrophages; veliparib 10 μM + dexamethasone 10 nM): further increased
- percentage of live cells in the FACS CD45-gate (macrophages; veliparib 10 μM or dexamethasone 10 nM alone): increased
- FDM formation, veliparib combined with glucocorticoid ([1]; WE #49, non-diabetic, non-immunosuppressed patient (FIG. 8)): could be enhanced with glucocorticoids in another non-diabetic and non-immunosuppressed patient, but not vice versa; also recorded: could be enhanced with glucocorticoids, but not vice versa
- FDM formation, veliparib combined with glucocorticoid ([1]; WE #78, patient with diabetes, immunosuppression after kidney transplantation (FIG. 7)): enhances the effect of glucocorticoids
- FDM formation, combination of veliparib with dexamethasone versus each alone ([1]; WE present, microscopy (FIG. 6)): even superior to each substance alone
- fibroblast-derived matrix (FDM) formation ([1]; presence of WE #78 (FIG. 9)): strong positive effect
- fibroblast-derived matrix (FDM/ECM) formation ([1]; presence of wound exudate, WE not specified (FIG. 6: microscopy)): “cleaned up” WE-induced fibroblast matrix inhibition
- staining for α-SMA ([2]; absence of WE, TGF-ß 20 ng/ml, veliparib 10 μM): has no effect; also recorded: had no effect
- staining for α-SMA, veliparib in combination with TGF-ß ([2]; presence of WE #78, veliparib 10 μM + TGF-ß 20 ng/ml): more strongly stained cells than veliparib alone
